The values below are quoted from earlier work in US9789059B2, “Oral disintegrating tablet” (Boehringer Ingelheim International GmbH, priority 2014, dated 2017).

SMILES strings stand for the structures.

The conditions of this series: physiological pH range of the gastro-intestinal tract between pH 1 to 7; free acid form.

As to `CCCc1nc2c(C)cc(-c3nc4ccccc4n3C)cc2n1Cc1ccc(-c2ccccc2C(=O)O)cc1` [Telmisartan, 4′-[2-n-propyl-4-methyl-6-(1-methylbenzimidazol-2-yl)-benzimidazol-1-ylmethyl]-biphenyl-2-carboxylic acid], the “solubility in aqueous systems” value is recorded as “very poor solubility”.
